From article PMC5209880, “Mobilization of hematopoietic stem cells with the novel CXCR4 antagonist POL6326 (balixafortide) in healthy volunteers—results of a dose escalation trial” (Journal of Translational Medicine, 2017)
Like-named read-outs stand apart in the source and are kept apart here.

Assays:
[1] = system: healthy male volunteers; experiment: Phase I dose escalation trial: safety and tolerability, adverse events
Procedure: Additional eligibility (inclusion) criteria for treatment with balixafortide were the same as for G-CSF mobilized stem cell donation. Between G-CSF mobilization/HSPC donation and study participation there was a wash-out period of at least 6 weeks.
Study drug was administered on an in-patient basis in the phase I clinical trial unit of Goethe University Medical Center, the ‘Klinisches Studienzentrum Rhein-Main’. Volunteers were discharged 24 h after treatment, to return for a follow-up appointment 8–14 days thereafter.
(§1) A total of 27 volunteers were treated with balixafortide. A treatment consisted of a single intravenous infusion of balixafortide in normal saline at doses of 500, 1000, 1500, 2000 and 2500 μg/kg, based on actual weight, followed by sequential clinical and blood analyses (see below). Initially conceived as a classical 3 + 3 dose escalation design, the volunteers were assigned to four groups defined by increasing dose levels of balixafortide (500, 1000, 1500, and 2000 μg/kg) administered by constant rate infusion at over 2 h. Subsequently, amendments were added to test additional modalities: Group 6 received 2500 μg/kg under the same conditions. Volunteers assigned to Group 5 received a dose level of 2000 μg/kg by an continuously increasing infusion rate (ramp-infusion instead of constant rate infusion) applied over 2 h. In group 7, a dose level of 1000 μg/kg was infused over 1 h at a constant rate and compared (intra-individually) to the 2 h infusion given with an interval of ≥4 weeks. A second balixafortide treatment was furthermore tested in volunteers from groups 2, 3 and 6 with groups 2 and 3 receiving 2500 μg/kg and group 6 given 1500 μg/kg as the second infusion. […] Thus, to allow for intra-individual comparison, 12 donors received a second dose of balixafortide (2 h constant infusion rate for all) after a minimum wash-out period of 4 weeks.
Vital signs were monitored immediately prior to and in the first 24 h after the start of the infusion of balixafortide; serial blood samples were drawn for biochemical safety profiling and pharmacokinetic/pharmacodynamic analyses. Given the cationic nature of the compound [17] the risk of local or systemic symptoms of histamine release was identified and anti-histamine treatment was proposed (per protocol) in case of such symptoms. […] Volunteers who received prophylactic or therapeutic anti-histamine medication are listed accordingly in Table 1.

[2] = system: CD34+ cells (HSPC); experiment: Mobilization of CD34+ cells, single platform flow cytometry of blood; type: in vivo, human
Procedure: A total of 27 volunteers were treated with balixafortide.
(§2) Blood samples were collected at the indicated times (Figs. 1, 2, 3, 4, 5 and 6) and kept at room temperature (maximum 2–3 h.) until immediately before analysis. Complete blood counts were assessed with the Sysmex XT1800 hematology analyzer (Norderstedt, Germany). CD34+ cells were quantified using the single platform flow cytometry analysis with the SCE Kit [Becton–Dickinson (BD), Heidelberg, Germany] according to the manufacturer’s instructions and ISHAGE guidelines. In addition, multi-parametric flow cytometric analyses were performed to quantify co-mobilized mature cell subsets such as T (CD45+ CD3+), B (CD45+ CD19+) and NK (CD45+ CD56+ 16+) cells (Multitest, T cells, BD), T cell subpopulations (CD45+ CD3+ CD4+/CD8+, Multitest, TBNL cells, BD) and monocytes (CD45+ CD14+, all from BD). In addition, plasmacytoid dendritic cell progenitors (pro-pDCs) were identified as CD45dimCD34dimCD45RA + CD123high (all moABs from BD). Lyse-no-wash protocols were used in conjunction with BD counting beads for direct cell enumeration for CD34+ cells and T cell subsets; all other cell concentrations were calculated using frequencies relative to directly enumerated cell species, such as CD34+, CD45+ or CD3+ cells.

[3] = system: leukocytes; experiment: Mobilization of mature hematopoietic cells (blood counts, flow cytometry); type: in vivo, human
Procedure: as §2

[4] = system: healthy male volunteers; experiment: Subjective rating questionnaire of G-CSF vs. balixafortide at follow-up; conditions: number of responses
[5] = Pharmacokinetics from serial plasma samples after intravenous infusion
Procedure: as §1
Plasma samples were collected at the indicated times and kept frozen until immediately before analysis.
Serial plasma samples were assayed for balixafortide concentrations and pharmacokinetic parameters were calculated using Phoenix WinNonlin 6.4.

[6] = system: CD34+ cells; conditions: cited from earlier work
Description: The ability of CXCR4 antagonists to rapidly dislodge stem cells from the marrow has been recognized for many years. Previously studied compounds were neither universally well tolerated nor very potent. The only currently approved CXCR4 antagonist plerixafor mobilized a median of 16 CD34+ cells per µL when administered alone (without G-CSF) in healthy donors, which is barely sufficient to generate a normal-sized graft in two apheresis sessions. || The comparator agent in our study was G-CSF given in split doses as is routine practice in our center; the rationale is twofold: more efficient mobilization and potentially better tolerability. […] Thus the advantage in efficiency of single-dose G-CSF vs. balixafortide at the doses tested here would be les ...

[7] = system: patients receiving a plerixafor-mobilized graft; conditions: recipients of a plerixafor-mobilized graft; cited from earlier work
[8] = system: healthy male volunteers; conditions: in vivo
[9] = system: plasmacytoid dendritic cell progenitors (pro-pDCs); experiment: Mobilization of plasmacytoid dendritic cell progenitors (pro-pDCs), flow cytometry; type: in vivo, human; conditions: balixafortide 1st treatment, constant infusion rate, 2 h; n = 21, mean ± SEM
Procedure: as §2

[10] = system: CFU-C (HSPC); experiment: Circulating colony-forming units-culture (CFU-C) in methylcellulose media; type: in vivo, human; conditions: all doses, mean ± SEM
Description: Circulating colony-forming units-culture (CFU-C) were quantified by plating aliquots of lysed peripheral blood in commercial cytokine-replete methylcellulose media (StemMACS HSC-CFU lite with Epo, human, Miltenyi Biotec GmbH, Bergisch-Gladbach, Germany).

[11] = 500 μg/kg, 2 h const. infusion, n = 3 volunteers
[12] = 1000 μg/kg, 1 h const. infusion, n = 3 volunteers
[13] = 1000 μg/kg, 2 h const. infusion, n = 7 volunteers
[14] = 1500 μg/kg, 2 h const. infusion, n = 7 volunteers
[15] = 2000 μg/kg, 2 h const. infusion, n = 6 volunteers
[16] = 2000 μg/kg, 2 h ramp infusion, n = 3 volunteers
[17] = 2500 μg/kg, 2 h const. infusion, n = 10 volunteers

## C[C@@H]1NC(=O)[C@H](Cc2c[nH]cn2)NC(=O)[C@H](Cc2ccc(O)cc2)NC(=O)[C@@H]2CCCN2C(=O)[C@H]2CCCN2C(=O)[C@H](CCCCN)NC(=O)[C@H](CCC(N)=O)NC(=O)[C@H](Cc2ccc(O)cc2)NC(=O)[C@@H]2CSSC[C@H](NC1=O)C(=O)N[C@@H](CO)C(=O)N[C@@H](C)C(=O)N1CCC[C@@H]1C(=O)N[C@@H](CCN)C(=O)N[C@@H](CCCNC(=N)N)C(=O)N[C@@H](Cc1ccc(O)cc1)C(=O)N2 [balixafortide]
[1]; 500 µg/kg
  Mild skin reactions such as flushing, urticaria or local itching, volunteers reporting: 1/3
[1]; [11]
  Infusion site erythema (volunteers with AE): 1
  Volunteers with AE: 1
[1]; 1000 µg/kg
  Mild skin reactions such as flushing, urticaria or local itching, volunteers reporting: 4/10
[1]; [12]
  Pruritus (volunteers with AE): 1
  Volunteers with AE: 1
[1]; [13]
  BP increase (volunteers with AE): 2
  Infusion site pruritus (volunteers with AE): 1
  Pruritus (volunteers with AE): 2
  Volunteers with AE: 5
[1]; 1500 µg/kg
  Mild skin reactions such as flushing, urticaria or local itching, volunteers reporting: 2/7
[1]; [14]
  Erythema (volunteers with AE): 1
  Infusion site erythema (volunteers with AE): 2
  Infusion site irritation (volunteers with AE): 1
  Infusion site pruritus (volunteers with AE): 1
  Pruritus (volunteers with AE): 1
  Urticaria (volunteers with AE): 1
  Volunteers with AE: 2
[1]; 2000 µg/kg
  Mild skin reactions such as flushing, urticaria or local itching, volunteers reporting: 8/9
[1]; [15]
  Blood CK increased (volunteers with AE): 2
  Bone pain (volunteers with AE): 1
  Erythema (volunteers with AE): 4
  Flushing (volunteers with AE): 1
  Hypoasthesia (volunteers with AE): 1
  Pruritus (volunteers with AE): 4
  Urticaria (volunteers with AE): 1
  Volunteers with AE: 6
[1]; [16]
  Flushing (volunteers with AE): 1
  Pruritus (volunteers with AE): 2
  Volunteers with AE: 2
[1]; 2500 µg/kg
  Mild skin reactions such as flushing, urticaria or local itching, volunteers reporting: 7/10
[1]; [17]
  Erythema (volunteers with AE): 7
  Feeling hot (volunteers with AE): 1
  Headache (volunteers with AE): 1
  Hypoasthesia (volunteers with AE): 1
  Hypoasthesia oral (volunteers with AE): 2
  Muscle tightness (volunteers with AE): 1
  Throat tightness (volunteers with AE): 1
  Vertigo (volunteers with AE): 1
  Volunteers with AE: 7
[1]; all doses 500-2500 µg/kg, 27 volunteers, 39 doses
  Severe adverse events (SAEs): No severe adverse events (SAEs) were observed
[1]; whole trial
  Systolic blood pressure reading of >150 mmHg, considered possibly related to study drug: 2 subjects
  Unexplained elevation in serum creatinine kinase, considered possibly related to study drug: 2 subjects
[2]; 500 µg/kg
  Time of peak CD34+ mobilization after the end of the infusion: 1 h
[2]; doses higher than 500 µg/kg
  Time of peak CD34+ mobilization after the end of the infusion: approximately 4 h
[2]; doses of 1500-2500 µg/kg, single i.v. infusion, mean ± SEM
  Mean peak mobilization of CD34+ cells: 38.2 ± 2.8 CD34+ cells/µL
[3]; doses of 1500-2500 µg/kg
  Mature cells mobilized relative to G-CSF: approximately half as many mature cells as G-CSF
[3]; doses of 1500-2500 µg/kg, mean ± SEM
  White blood counts (WBCs) reached: 25.3 ± 1.4 × 10*3 WBC/µL
[4]
  Side effects in the course of treatment: Abdominal pain: 0
  Side effects in the course of treatment: Bone pain: 0
  Side effects in the course of treatment: Fatigue: 4
  Side effects in the course of treatment: Fever: 0
  Side effects in the course of treatment: Flu-like symptoms: 0
  Side effects in the course of treatment: Headache: 1
  Side effects in the course of treatment: Insomnia: 1
  Side effects in the course of treatment: Palpitation: 0
  Side effects in the course of treatment: Skin reactions: 13
  Side effects in the course of treatment: Sweating: 1
  Side effects in the course of treatment: Vomiting: 1
[5]; human plasma, i.v. infusion 500-2500 µg/kg, Phoenix WinNonlin 6.4, approximately
  Volume of distribution: 0.5 to 0.6 L/kg
[5]; human, i.v. infusion
  Clearance: almost equal to the glomerular filtration rate
[5]; human, i.v. infusion 500-2500 µg/kg, n = 3-6
  Dose dependence of Cmax and AUC: dose linearity for both Cmax and AUC
[5]; human, plasma, iv
  half-life: ~5 h

## c1cc(CN2CCCNCCNCCCNCC2)ccc1CN1CCCNCCNCCCNCC1 [plerixafor, reference compound]
[6]; administered alone (without G-CSF) in healthy donors
  Median CD34+ cells mobilized: 16 CD34+ cells per µL
[7]
  Patients who developed acute GvHD 3° or 4°: 1/20

B1: filgrastim (protein, UniProt P09919 31-207, looked up)
Granulocyte …: TPLGPASSLPQSFLLKCLEQVRKIQGDGAALQEKLVSECATYKLCHPEELVLLGHSLGIPWAPLSSCPSQALQLAGCLSQLHSGLFLYQGLLQALEGISPELGPTLDTLQLDVADFATTIWQQMEELGMAPALQPTQGAMPAFASAFQRRAGGVLVASHLQSFLEVSYRVLRHLAQP
modifications: filgrastim, N-terminal Met
notes: cytokine, standard hematopoietic stem and progenitor cell mobilizing agent
[8]
  Side effects in the course of treatment: Abdominal pain: 2
  Side effects in the course of treatment: Bone pain: 24
  Side effects in the course of treatment: Fatigue: 11
  Side effects in the course of treatment: Fever: 2
  Side effects in the course of treatment: Flu-like symptoms: 21
  Side effects in the course of treatment: Headache: 11
  Side effects in the course of treatment: Insomnia: 0
  Side effects in the course of treatment: Palpitation: 1
  Side effects in the course of treatment: Skin reactions: 1
  Side effects in the course of treatment: Sweating: 0
  Side effects in the course of treatment: Vomiting: 0
[9]
  Mobilization of pDC progenitors (% of CD34+CD45dim): 2.18±0.34%
[6]; same daily dose as a single injection
  Average CD34+ cell counts: mid-sixties’ range
[10]
  Clonogenicity: mobilized CD34+ cells per 1 CFU-C: 3.2 ± 0.2 CD34+ cells
[2]; 5-day course of filgrastim 7.5-10 µg/kg per day in 2 divided doses, mean ± SEM
  Mobilization response of CD34+ cells: 121.6 ± 8.6 CD34+ cells/μL
[2]; intra-individual comparison, balixafortide 1500-2500 µg/kg, on average
  Effectiveness of G-CSF regimen relative to balixafortide, CD34+ mobilization: about three times as effective
[3]; mean ± SEM
  Ratio between T-lymphocytes and CD34+ cells in mobilized blood: 26.2 ± 1.98 :1
